Drawing on patent US8394969B2, “Cyclic benzimidazole derivatives useful as anti-diabetic agents” (Merck Sharp & Dohme Corp., priority 2008, dated 2013), this text covers Emax for 25 compounds.

Counter-ions that a name gives are not always drawn. Bounds are passed on as bounds.

This experiment addresses recombinant human AMPK complex 1 (containing α1β1γ1) (Homo sapiens, UniProt Q13131+Q9Y478). Kind of experiment: […] (in vitro AMPK activation assay). The following applies: recombinant human AMPK complex 1 (α1β1γ1); basal activity subtracted; read-out: % Maximum AMP Activation of human AMPK Complex 1. Format: biochemical.

recombinant human AMPK complex 1 (containing α1β1γ1), sequence (Q13131 whole entry): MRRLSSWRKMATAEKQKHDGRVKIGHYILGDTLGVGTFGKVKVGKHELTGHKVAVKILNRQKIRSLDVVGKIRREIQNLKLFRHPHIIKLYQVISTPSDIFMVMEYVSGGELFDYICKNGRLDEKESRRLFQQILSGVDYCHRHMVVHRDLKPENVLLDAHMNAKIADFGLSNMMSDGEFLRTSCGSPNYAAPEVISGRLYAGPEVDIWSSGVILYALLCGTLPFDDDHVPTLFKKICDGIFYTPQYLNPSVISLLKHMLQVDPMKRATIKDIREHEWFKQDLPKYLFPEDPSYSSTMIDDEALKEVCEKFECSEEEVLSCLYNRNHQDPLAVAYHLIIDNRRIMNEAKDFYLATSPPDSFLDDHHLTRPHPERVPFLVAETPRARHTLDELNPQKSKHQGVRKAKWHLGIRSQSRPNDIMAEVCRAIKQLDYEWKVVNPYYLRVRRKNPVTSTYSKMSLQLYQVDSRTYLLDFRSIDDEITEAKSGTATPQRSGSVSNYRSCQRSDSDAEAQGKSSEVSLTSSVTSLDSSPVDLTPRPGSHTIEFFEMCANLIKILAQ
recombinant human AMPK complex 1 (containing α1β1γ1), sequence (Q9Y478 whole entry): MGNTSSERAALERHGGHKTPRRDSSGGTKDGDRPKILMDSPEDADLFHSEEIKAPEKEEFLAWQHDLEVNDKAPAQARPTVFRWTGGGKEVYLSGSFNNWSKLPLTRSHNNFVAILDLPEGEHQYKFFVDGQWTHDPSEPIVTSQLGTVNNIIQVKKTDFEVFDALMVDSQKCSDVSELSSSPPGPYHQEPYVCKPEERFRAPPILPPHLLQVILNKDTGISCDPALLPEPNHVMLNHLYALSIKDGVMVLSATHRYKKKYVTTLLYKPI
recombinant human AMPK complex 1 (containing α1β1γ1), sequence (P54619 whole entry partner): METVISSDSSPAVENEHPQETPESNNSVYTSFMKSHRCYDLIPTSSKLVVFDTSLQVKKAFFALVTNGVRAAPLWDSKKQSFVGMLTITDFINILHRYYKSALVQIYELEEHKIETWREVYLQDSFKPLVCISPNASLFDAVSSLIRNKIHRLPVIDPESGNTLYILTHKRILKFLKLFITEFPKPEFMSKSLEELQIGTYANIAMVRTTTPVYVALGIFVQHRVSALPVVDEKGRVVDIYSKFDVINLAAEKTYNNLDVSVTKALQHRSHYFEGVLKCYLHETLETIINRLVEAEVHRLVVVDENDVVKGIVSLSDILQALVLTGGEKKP

As for `COC(=O)c1ccc(Oc2nc3cc(-c4ccc(-c5ccccc5)cc4)c(Cl)cc3[nH]2)cc1C(=O)OC` [Example 10, 4-(5-Biphenyl-4-yl-6-chloro-1H-benzoimidazol-2-yloxy)-phthalic acid dimethyl ester], the Emax was above 80%.

In the case of `O=C1NC(=O)C(c2ccc(Oc3nc4cc(-c5ccc(-c6ccccc6)cc5)c(Cl)cc4[nH]3)cc2)N1` (stereo not shown) [Example 29, 5-[4-(5-Biphenyl-4-yl-6-chloro-1H-benzoimidazol-2-yloxy)-phenyl]-imidazolidine-2,4-dione], the Emax was above 80%.

Turning to `Cc1ccc(Oc2nc3cc(-c4ccc5c(ccn5CC(F)(F)F)c4)c(Cl)cc3[nH]2)cc1C(=O)O` [Example 351, 5-{6-Chloro-5-[1-(2,2,2-trifluoro-ethyl)-1H-indol-5-yl]-1H-benzoimidazol-2-yloxy}-2-methyl-benzoic acid], the Emax was above 80%.

In the case of `COC(=O)c1cc(Oc2nc3cc(-c4ccc(-c5ccccc5OC)cc4)c(Cl)cc3[nH]2)ccc1C` [Example 197, Methyl 5-{[6-chloro-5-(2′-methoxybiphenyl-4-yl)-1H-benzimidazol-2-yl]oxy}-2-methylbenzoate], the Emax is above 80%.

In the case of `Cc1ccc(Oc2nc3cc(-c4ccc5c(c4)cc(C(=O)O)n5C)c(Cl)cc3[nH]2)cc1C(=O)O` [Example 275, 5-[2-(3-Carboxy-4-methyl-phenoxy)-6-chloro-1H-benzoimidazol-5-yl]-1-methyl-1H-indole-2-carboxylic acid], the Emax was above 80%.

As for `Cc1ccc(Oc2nc3cc(-c4ccc(/C(N)=N/O)cc4)c(Cl)cc3[nH]2)cc1C(=O)O` [Example 177, 5-{6-Chloro-5-[4-(N-hydroxycarbamimidoyl)-phenyl]-1H-benzoimidazol-2-yloxy}-2-methyl-benzoic acid], the Emax was above 80%.

In the case of `O=C1Cc2cc(Oc3nc4cc(-c5ccc(-c6ccccc6)cc5)c(Cl)cc4[nH]3)ccc2O1` [Example 16, 5-(5-Biphenyl-4-yl-6-chloro-1H-benzoimidazol-2-yloxy)-3H-benzofuran-2-one], the Emax is above 80%.

For `CCn1ccc2cc(-c3cc4nc(Oc5ccc(C)c(C(=O)O)c5)[nH]c4cc3Cl)ccc21` [Example 254, 5-[6-Chloro-5-(1-ethyl-1H-indol-5-yl)-1H-benzoimidazol-2-yloxy]-2-methyl-benzoic acid], the Emax is above 80%.

`Cc1cc(Oc2nc3cc(-c4ccc5c(ccn5C)c4)c(Cl)cc3[nH]2)cc(C(=O)O)c1C` [Example 311, 5-[6-Chloro-5-(1-methyl-1H-indol-5-yl)-1H-benzoimidazol-2-yloxy]-2,3-dimethyl-benzoic acid]: the Emax is above 80%.

With `COC(=O)c1ccc(C#Cc2cc3nc(Oc4ccc(C)c(C(=O)O)c4)[nH]c3cc2Cl)cc1` [Example 91, 5-[6-Chloro-5-(4-methoxycarbonyl-phenylethynyl)-1H-benzoimidazol-2-yloxy]-2-methyl-benzoic acid], the Emax is above 80%.

For `Cc1ccc(Oc2nc3cc(-c4ccc5ncccc5c4)c(Cl)cc3[nH]2)cc1C(=O)O` [Example 150, 2-(3-carboxy-4-methylphenoxy)-6-chloro-5-quinolin-6-yl-1H-3,1-benzimidazol-3-ium chloride], the Emax is above 80%.

As for `COC(=O)c1cc(Oc2nc3cc(C#Cc4cccc(C)c4)c(Cl)cc3[nH]2)ccc1C` [Example 100, 5-(6-Chloro-5-m-tolylethynyl-1H-benzoimidazol-2-yloxy)-2-methyl-benzoic acid methyl ester], the Emax is above 80%.

Turning to `COc1ccc(-c2ccc(-c3cc4nc(Oc5ccc(C)c(C(=O)O)c5)[nH]c4cc3Cl)cc2)cn1` [Example 201, 5-({6-chloro-5-[4-(6-methoxypyridin-3-yl)phenyl]-1H-benzimidazol-2-yl}oxy)-2-methylbenzoic acid], the Emax was above 80%.

For the compound `Cc1ccc(Oc2nc3cc(-c4ccc5c(c4)CNC5)c(Cl)cc3[nH]2)cc1C(=O)O` [Example 301, 5-[2-(3-carboxy-4-methylphenoxy)-6-chloro-1H-benzimidazol-5-yl]-2,3-dihydro-1H-isoindolium trifluoroacetate], the Emax is above 80%.

Take `Cc1ccc(Oc2nc3cc(-c4ccc5c(c4)OC(F)(F)O5)c(Cl)cc3[nH]2)cc1C(=O)O` [Example 308, 5-[6-Chloro-5-(2,2-difluoro-benzo[1,3]dioxol-5-yl)-1H-benzoimidazol-2-yloxy]-2-methyl-benzoic acid]: the Emax is above 80%.

With `COC(=O)c1cc(Oc2nc3cc(C#Cc4ccc(F)cc4)c(Cl)cc3[nH]2)ccc1C` [Example 114, 5-[6-Chloro-5-(4-fluoro-phenylethynyl)-1H-benzoimidazol-2-yloxy]-2-methyl-benzoic acid methyl ester], the Emax was above 80%.

As to `Cc1ccc(Oc2nc3cc(-c4ccc5c(c4)c(C)cn5C)c(Cl)cc3[nH]2)cc1C(=O)O` [Example 288, 5-[6-Chloro-5-(1,3-dimethyl-1H-indol-5-yl)-1H-benzoimidazol-2-yloxy]-2-methyl-benzoic acid], the Emax was above 80%.

As for `Cc1ccc(Oc2nc3cc(-c4sc(-c5ccccc5)nc4C)c(Cl)cc3[nH]2)cc1C(=O)O` [Example 361, 5-[6-chloro-5-(4-methyl-2-phenyl-thiazol-5-yl)-1H-benzoimidazol-2-yloxy]-2-methyl-benzoic acid], the Emax is above 80%.

With `Cc1ccc(Oc2nc3cc(-c4ccc(C5CC5)c(N(C)C)c4)c(Cl)cc3[nH]2)cc1C(=O)O` [Example 267, 5-[6-Chloro-5-(4-cyclopropyl-3-dimethylamino-phenyl)-1H-benzoimidazol-2-yloxy]-2-methyl-benzoic acid], the Emax is above 80%.

As to `O=C(O)c1cccc(Oc2nc3cc(-c4ccc(-c5ccccc5)cc4)c(Cl)cc3[nH]2)n1` [Example 214, 6-(5-Biphenyl-4-yl-6-chloro-1H-benzoimidazol-2-yloxy)-pyridine-2-carboxylic acid], the Emax was above 80%.

Regarding `COc1ccc2cc(C#Cc3cc4nc(Oc5ccc(C)c(C(=O)O)c5)[nH]c4cc3Cl)ccc2c1` [Example 94, 5-[6-Chloro-5-(6-methoxy-naphthalen-2-ylethynyl)-1H-benzoimidazol-2-yloxy]-2-methyl-benzoic acid], the Emax is above 80%.

`Cc1ccc(Oc2nc3cc(-c4cccc(-c5ccccc5)c4)c(Cl)cc3[nH]2)cc1C(=O)O` [Example 302, 5-(5-Biphenyl-3-yl-6-chloro-1H-benzoimidazol-2-yloxy)-2-methyl-benzoic acid]: the Emax is above 80%.

In the case of `Cc1ccc(Oc2nc3cc(C#Cc4ccc(C(=O)O)cc4)c(Cl)cc3[nH]2)cc1C(=O)O` [Example 181, 5-[5-(4-Carboxy-phenylethynyl)-6-chloro-1H-benzoimidazol-2-yloxy]-2-methyl-benzoic acid], the Emax was above 80%.

Regarding `Cc1ccc(Oc2nc3cc(C#Cc4cccc(C(=O)O)c4)c(Cl)cc3[nH]2)cc1C(=O)O` [Example 126, 5-[5-(3-Carboxy-phenylethynyl)-6-chloro-1H-benzoimidazol-2-yloxy]-2-methyl-benzoic acid], the Emax is above 80%.

`Cc1ccc(Oc2nc3cc(-c4ccc5c(c4)n(C)c(=O)n5C)c(Cl)cc3[nH]2)cc1C(=O)O` [Example 235, 5-(6-Chloro-1′,3′-dimethyl-2′-oxo-2′,3′-dihydro-1H,1′H-[5,5′]bibenzoimidazolyl-2-yloxy)-2-methyl-benzoic acid]: the Emax was above 80%.
